In US10815297B2, “Antagonists of IL17C for the treatment of inflammatory disorders” (MorphoSys AG, priority 2011, dated 2020):
Values belong to the molecule of their own block, whether it stands above or below them.

Columns and labels:
[1] = system: TS-exposed mice (C57BL/6J), pulmonary inflammation; experiment: Tobacco smoke model, cells recovered in bronchoalveolar lavage; format: in vivo, mouse
Protocol: The response consisted of significant increases in the numbers of macrophages, epithelial cells, neutrophils and lymphocytes recovered in BAL.
Vehicle (PBS), MOR12743 and MOR03207 were administered i.p., 1 h prior to TS-exposure on days 1, 4, 7 and 10 of the study. Roflumilast was administered p.o., 1 h prior to each TS-exposure.
In this exposure protocol, mice were exposed in groups of 5 in clear polycarbonate chambers (27 cm×16 cm×12 cm). The TS from ‘Marlboro 100’ cigarettes was allowed to enter the exposure chambers at a flow rate of 100 mL/min. In order to minimise any potential problems caused by repeated exposure to a high level of TS, the exposure period to TS was increased initially from 25 minutes at the start of the study (day 1) to a maximum of 45 minutes on day 3. The exposure schedule used in this study was as follows:
The trachea was cannulated using a 10 mm long Luer fitting stainless steel cannula. Phosphate buffered saline (PBS) was used as the lavage fluid. A volume of 0.4 mL was gently instilled and withdrawn 3 times using a 1 mL syringe and then placed in an Eppendorf tube and kept on ice prior to subsequent determinations.
Lavage fluid was separated from cells by centrifugation (6 min at 3400 rpm, RCF=3070×g—‘Eppendorf Mini Spin’) and the supernatant decanted and frozen for possible subsequent analysis. The cell pellet was re-suspended in a known volume of PBS and total cell numbers calculated by counting a stained (Turks stain) aliquot under a microscope using a haemocytometer.
The residual cell pellet was diluted to approximately 10^5 cells per mL. A volume of 500 μl was placed in the funnel of a cytospin slide and centrifuged for 8 min at 800 rpm, RCF=72.26×g (Shandon Cytospin 3). The slide was air-dried and stained using Wrights/Giemsa stain as per the proprietary instructions. When dried and cover-slipped, differential cell-counts were performed using light microscopy. Approximately 400 cells were counted for each slide. Cells were identified using standard morphometric techniques.
In this study, 4 groups of mice were subjected to daily TS-exposure for 11 days and were sacrificed on the 12th day, 24 h after the final TS-exposure. Three groups received either vehicle (D-PBS), MOR12743 or MOR03207, i.p., 1 h prior to TS-exposure on days 1, 4, 7 and 10 of the study. One group received Roflumilast, p.o., 1 h prior to each TS-exposure. A further group was exposed to air for 11 consecutive days and sacrificed on the 12th day, 24 h after the final air-exposure. This group received vehicle (D-PBS), i.p., 1 h prior to exposure on days 1, 4, 7 and 10 of the study. For all groups n=10.
All mice were killed on day 12, by intra-peritoneal barbiturate anaesthetic overdose, 24 h after final exposure to air or TS. A blood sample was taken over heparin from the sub-clavian vein and the plasma separated by centrifugation and stored at −40° C. A BAL was performed using 0.4 mL of phosphate buffered saline (PBS). Cells recovered from the BAL were used for the total cell and differential cell counts. The BAL supernatants and remaining cell pellet were stored at −40° C. and −80° C. respectively for possible future analysis. Following BAL, the cannula was left tied in place. The heart and lungs were removed after gently opening the thorax and cutting down either side of the sternum and ribs. The left lobe was tied off, removed, snap-frozen and stored at −80° C. The right lobe was inflated with 10% phosphate buffered formalin (PBF) to a pressure of 18 cm of PBF for 20 minutes. The trachea was then ligated below the cannula and the cannula removed. The heart, lung & trachea were immersed in PBF.
The data were therefore initially subjected to a one-way analysis of variance test (ANOVA), followed by a Bonferroni correction for multiple comparisons in order to test for statistically significant differences between treatment groups. A “p” value of <0.05 was considered to be statistically significant. […]

[2] = system: mouse CIA model (DBA1/J mice); experiment: Mouse collagen induced arthritis (CIA) model, therapeutic protocol; format: in vivo; conditions: 10 mg/kg, 3x week, i.p., day 31 to day 46
Protocol: DBA1/J mice (male, 6-7 weeks old, approx 20 gram) were obtained from Centre d'Elevage Regional Janvier (Laval, France). Mice were kept on a 12 hr light/dark cycle (0700-1900). Temperature was maintained at 22° C., and food and water were provided ad libitum.
One day before the experiment, CII solution (2 mg/mL) was prepared with 0.05 M acetic acid and stored at 4° C. Just before the immunization, equal volumes of adjuvant […] and CII were mixed by a homogenizer in a pre-cooled glass bottle in an ice water bath. Extra adjuvant and prolonged homogenization may be required if an emulsion is not formed. 0.1 mL of the emulsion was injected intradermally at the base of the tail of each mouse on day 1, a second booster intradermal injection (CII solution at 2 mg/mL in […] 0.1 mLemulsion) was performed on day 21. This immunization method was modified from published methods (Brand et al, 2007, Collagen-induced arthritis. Nature Protocols; vol 2 (5): 1269-1275; Lin et al., 2007, Anti-rheumatic activities of histone deacetylase (HDAC) inhibitors in vivo in collagen-induced arthritis in rodents. Br J Pharmacol. April; 150 (7):829-31).
The therapeutic effects of the antibodies were tested in the mouse CIA model. Mice were randomly divided into equal groups and each group contained 10 mice. All mice were immunized on day 1 and boosted on day 21. Therapeutic dosing lasted from day 31 to day 46. The negative control group was treated with vehicle (PBS) and the positive control group with Enbrel (10 mg/kg, 3× week, i.p.). An antibody of interest was tested at 10 mg/kg, i.p. 3 times per week.
Anti-IL17C antibodies were administered i.p. three times a week at 10 mg/kg. […]
Arthritis was scored according to the method of Khachigian 2006 (Collagen antibody-induced arthritis. (2006) Nature Protocols 1, 2512-6), Lin et al 2007 (supra); Nishida et al. 2004 (Histone deacetylase inhibitor suppression of autoantibody-mediated arthritis in mice via regulation of p16INK4a and p21(WAF1/Cip1) expression. Arthritis Rheum. 10: 3365-76); and Brand et al. 2007 (supra). […]

[3] = target: T1, mouse IL17C (Mus musculus, UniProt Q8K4C5); experiment: ELISA titration on mouse IL17C (EC50 determination); format: binding
T1 construct: purchased R&D Systems 2306-ML/CF
T1 sequence (Q8K4C5 17-194): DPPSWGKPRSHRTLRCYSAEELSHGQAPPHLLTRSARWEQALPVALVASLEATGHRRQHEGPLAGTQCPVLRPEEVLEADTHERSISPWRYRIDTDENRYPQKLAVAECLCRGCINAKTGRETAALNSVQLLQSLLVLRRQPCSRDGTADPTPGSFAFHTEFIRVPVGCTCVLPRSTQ
Protocol: All purified chimeric human-mouse chimeric IgG2a antibodies were titrated on mouse IL17C for EC50 determination in ELISA starting with a concentration of 100 nM. EC50 values on mouse IL17C were determined in 1 to 3 independent experiments.

Molecule: O=C(Nc1c(Cl)cncc1Cl)c1ccc(OC(F)F)c(OCC2CC2)c1 [Roflumilast, reference compound]
Inhibition of epithelial cells in BAL ([1]; 5 mg/kg p.o. q.d.): 50%
Inhibition of lymphocytes in BAL ([1]; 5 mg/kg p.o. q.d.): 54%
Inhibition of macrophages in BAL ([1]; 5 mg/kg p.o. q.d.): 13%
Inhibition of neutrophils in BAL ([1]; 5 mg/kg p.o. q.d.): 56%
Inhibition of total cells in BAL ([1]; 5 mg/kg p.o. q.d., 1 h prior to each TS-exposure): 32%
inhibition of total cell numbers recovered in the BAL (in words) ([1]; 5 mg/kg p.o., 1 h prior to each TS-exposure): significantly inhibited

Molecule: etanercept [Enbrel, reference compound]
inhibition of inflammation / disease progression (clinical score) [2]: did inhibit

B3: MOR12758: anti-mouse IL17C HuCAL antibody; CDRs SEQ ID NO: 131-136, VL 137, VH 138 (antibody, V domains shown)
VH: EVQLVQSGAEVKKPGESLKISCKGSGYSFTDYWISWVRQMPGKGLEWMGAIDPTDSYTRYSPSFQGQVTISADKSISTAYLQWSSLKASDTAMYYCARWYTSHPYYEGRYPMDVWGQGTLVTVSS
VL: DIALTQPASVSGSPGQSITISCTGTSSDVGHYNYVSWYQQHPGKAPKLMIYGVTKRPSGVSNRFSGSKSGNTASLTISGLQAEDEADYYCASADEWPTLHVFGGGTKLTVLGQ
modifications: VH; VL
binding activity with purified IgG2a [3]: could not be confirmed

B4: MOR12755: anti-mouse IL17C HuCAL antibody; CDRs SEQ ID NO: 101-106, VL 107, VH 108 (antibody, V domains shown)
VH: QVQLQQSGPGLVKPSQTLSLTCAISGDSVSSNSAAWNWIRQSPSRGLEWLGKTYYRSTWSNDYAESVKSRITINPDTSKNQFSLQLNSVTPEDTAVYYCAREMDSLTRSASSIAFDYWGQGTLVTVSS
VL: DIELTQPPSVSVSPGQTASITCSGDNLREHYVHWYQQKPGQAPVLVIYDDTERPSGIPERFSGSNSGNTATLTISGTQAEDEADYYCATRDWSNVVFGGGTKLTVLGQ
modifications: VH; VL
binding activity with purified IgG2a [3]: could not be confirmed

The next lines start with the values.

binding activity with purified IgG2a [3]: could not be confirmed
B1: MOR12756: anti-mouse IL17C HuCAL antibody; CDRs SEQ ID NO: 111-116, VL 117, VH 118 (antibody, V domains shown)
VH: QVQLQQSGPGLVKPSQTLSLTCAISGDSVSDNSVAWNWIRQSPSRGLEWLGRIYYRSKWYNDYAVSVKSRITINPDTSKNQFSLQLNSVTPEDTAVYYCAREVLLFPARSYGTGMDVWGQGTLVTVSS
VL: DIELTQPPSVSVSPGQTASITCSGDNLPSKYVHWYQQKPGQAPVLVIYDDNERPSGIPERFSGSNSGNTATLTISGTQAEDEADYYCGVADMPRQMKVFGGGTKLTVLGQ
modifications: VH; VL

binding activity with purified IgG2a [3]: could not be confirmed
B2: MOR12757: anti-mouse IL17C HuCAL antibody; CDRs SEQ ID NO: 121-126, VL 127, VH 128 (antibody, V domains shown)
VH: EVQLLESGGGLVQPGGSLRLSCAASGFTFSSYAMSWVRQAPGKGLEWVSFISSGGSETFYADSVKGRFTISRDNSKNTLYLQMNSLRAEDTAVYYCARVSYIYYYSWVLFDVWGQGTLVTVSS
VL: DIQMTQSPSSLSASVGDRVTITCRASQGIGTALNWYQQKPGKAPKLLIYDVSSLQSGVPSRFSGSGSGTDFTLTISSLQPEDFATYYCQQGLFLPFTFGQGTKVEIKRT
modifications: VH; VL
